Like-named read-outs stand apart in the source and are kept apart here. Marks after values point to notes of the source that are not given here.
Assays:
[1] = Plasma pharmacokinetics of buserelin after i.m. administration in pigs; assay type: in vivo; settings: for MRT: pig, 1 mg per pig
Procedure: The UPLC-MS/MS system (Waters Acquity UPLC and Waters Quattro Premier, Waters Co., USA) and the chromatographic column (Agilent Poroshell 120 EC-C18, 4.6 × 100 mm, 2.7 µm) were used in this study. The separation was performed with 0.1% formic acid in water (mobile phase solvent A) and 0.1% formic acid in acetonitrile (solvent B) with a flow rate of 0.6 mL/min. The gradient elution program was optimized as follow: 75% A (0–0.5 min), 10% A (5–7 min) 75% A (7.1–10 min). The sample was injected at a volume of 5 µL at 30℃. The mass spectrometer was operated in the positive ion detection mode with the capillary voltage set at 5.5 kV and the source temperature was 550 ℃. Others parameters were as follows: nebulizer gas pressure was 55 psi, ion source gas pressure was 60 psi, curtain gas pressure was 30 psi, declustering potential was 68 V, entrance potential was 10 V, and collision cell exit potential was 13 V.
Five healthy adult female Danish Landrance × Yorkshire × Duroc pigs (100–120 days, 50–60 kg, Ningbo Kuangdai Husbandry Co., Ltd. Ningbo China) and five healthy adult female Holstein cows (1.5–2 years, 440–500 kg, Ningbo Milk Group Co., Ltd. Ningbo China) were randomly selected to use in this research. All animals were examined by a local veterinarian with regard to physical, hematologic, and biochemical conditions during the two-week adaptation period. The two protocols used in this study were reviewed and approved by the Institutional Animal Care and Use Committee of China Agricultural University (pigs: 11605–20-D-007; cows: 11605–20-B-003). Buserelin injection solution (0.5 mg/mL, 10 mL) was acquired from Ningbo Sansheng Pharmaceutical Company. In order to avoid introducing bias results from feeding, each animal in the study fasted for approximately 12 h. Each pig received 1 mg buserelin injection solution (about 0.018 mg/kg), and each cow received 3 mg (about 0.0064 mg/kg). During the entire experiment, water was available ad libitum. Adverse symptoms were recorded and evaluated. Blood samples of 5 mL were collected into heparinized tube (pigs: anterior vena cava; cows: vena jugularis interna) at 0, 0.083, 0.167, 0.333, 0.5, 0.75, 1, 1.5, 2, 3, 4, 5, 6, 7, and 8 h after i.m. administration. The blood samples were centrifuged for 5 min at 2775 × g. Plasma samples were stored in -20 ℃ until analysis (within 21 days of collection).
Frozen plasma samples were thawed and vortexed, and 500 µL plasma and 1 mL 0.1% formic acid in acetonitrile were mixed together. After 10 min ultrasonic treatment, the samples were centrifuged for 10 min at 11,100 × g. The upper layer was collected and the remainder was treated twice. These two supernatants were added together, the samples were evaporated via nitrogen gas at 40 ℃, and redissolved in 2.5 mL 0.1% formic acid in acetonitrile-0.1% formic acid in water (1:3 v/v). After filtered through a 0.22 µm microbore cellulose membrane, the samples were collected and bottled to UPLC-MS/MS system for analysis.
Plasma concentrations of buserelin were analyzed using the established method, and the pharmacokinetic parameters were calculated via a non-compartmental analysis model 200 in WinNonlin software (WinNolin 8.1.0 Certara, Pharsight, Mountain View, CA, USA) and expressed in mean ± standard deviation (SD), and no statistical tests were applied.

[2] = Stability of buserelin in pig plasma (autosampler, benchtop, freeze–thaw); assay type: in vitro ADME; settings: for Stability, Accuracy Mean ± SD: pig plasma, UPLC-MS/MS
Procedure: (§1) Selectivity has been assessed by comparing the chromatograms of blank plasma samples and those of corresponding items with buserelin to exclude the interfering peaks. The calibration curve was established by spiking the blank matrix with known concentration of buserelin. Limit of detection (LOD) and Limit of quantification (LOQ) were determined as the concentrations of buserelin which produced signal/ noise ratio of 3 and 10, respectively. For linearity of this method, calibration curves were generated by least squares regression method with a weighting factor and regression coefficient. Recovery was determined by comparing the analytical results of the extracted quality control (QC) samples with pure standard solution. The accuracy was assessed as the percentage of the measured concentration to the nominal standard concentration. The precision was expressed by coefficient of variation. Stability was assessed by autosampler, benchtop, freeze–thaw, and stock solution test. The matrix effect was obtained with the area of post-extraction blank plasma samples added with buserelin at two levels with the equivalent concentration standard solutions that added with initiate mobile phase.

[3] = Stability of buserelin in cow plasma (autosampler, benchtop, freeze–thaw); assay type: in vitro ADME; settings: UPLC-MS/MS
Procedure: as §1

[4] = Stock solution stability test of buserelin; assay type: physicochemical; settings: stock solution in methanol, concentration 100 ng/mL, UPLC-MS/MS
Procedure: A standard stock solution (1 mg/mL) was prepared by dissolving 2 mg standard buserelin in 2 mL methanol. This solution was stored in brown glass bottles at -20 ℃. Working solutions were prepared by diluting the stock solution with methanol.
as §1, with “The matrix effect was obtained with the area of post-extraction blank plasma samples added with buserelin at two levels with the equivalent concentration standard solutions that added with initiate mobile phase.” left out

[5] = cited from earlier work
Procedure: After being approved by the European Medicines Agency (EMA) in 1995 [1], there are some pharmacokinetic studies of buserelin been reported in humans and rats following subcutaneous (s.c.), intranasal (i.n.), or intravenous (i.v.) routes. […] Regardless of the administration route of buserelin, the elimination of half- ... || The Vd was 80.49 ± 43.88 L for pigs and 839.88 ± 174.77 L for cows, which is larger than pigs (304 ± 112 mL/kg) at a single dose 1 mg i.v., and dogs (50.1 ± 2.4 mL/kg) at a single dose 5 mg i.v.. High plasma concentration, high bonding rate, means more drugs cannot across the membrane and barrier. Therefore, binding changes can affect the distribution of drugs. Because protein binding of buserelin is about 15% [2], it is proportional to the body volume and body weight and animals using in this study had larger volume of body water or extracellular water. It has been repo ...

[6] = female, Danish Landrance × Yorkshire × Duroc, im, single i.m. dose 1 mg per pig, plasma, mean ± SD, n = 5
[7] = single i.m. dose 1 mg per pig, plasma, mean ± SD, n = 5

Compound `CCNC(=O)[C@@H]1CCCN1C(=O)[C@H](CCCNC(=N)N)NC(=O)[C@H](CC(C)C)NC(=O)[C@@H](COC(C)(C)C)NC(=O)[C@H](Cc1ccc(O)cc1)NC(=O)[C@H](CO)NC(=O)[C@H](Cc1c[nH]c2ccccc12)NC(=O)[C@H](Cc1cnc[nH]1)NC(=O)[C@@H]1CCC(=O)N1` [buserelin, Buserelin] has a tmax ([1]; female, Danish Landrance × Yorkshire × Duroc, im, single i.m. dose 1 mg per pig (about 0.018 mg/kg), plasma, UPLC-MS/MS, non-compartmental, mean ± SD, n = 5) of 0.57 ± 0.18 h, an AUC(0-t) ([1]; female, Danish Landrance × Yorkshire × Duroc, im, single i.m. dose 1 mg per pig, plasma, 0 to last measurement point, mean ± SD, n = 5) of 25 ± 6.93 ng·h/mL and a Cmax ([1]; female, Danish Landrance × Yorkshire × Duroc, im, single i.m. dose 1 mg per pig, plasma, UPLC-MS/MS, non-compartmental, mean ± SD, n = 5) of 11 ± 2.04 ng/mL. The AUC(0-inf) [1, 6] was 25.8 ± 6.75 ng·h/mL, the CL/F [1, 6] was 686 mL/min and the Vd/F [1, 6] was 80.5 ± 43.9 L. It also gave a half-life ([1]; female, Danish Landrance × Yorkshire × Duroc, im, single i.m. dose 1 mg per pig, plasma, non-compartmental, mean ± SD, n = 5, read-out: t1/2 (elimination half-time) (converted)) of 1.29 ± 0.4 h, an MRT ([1]; female, Danish Landrance × Yorkshire × Duroc, plasma, im, single i.m. dose 1 mg per pig, plasma, mean ± SD, n = 5, read-out: MRT0-t) of 2.13 ± 0.27 h and an MRT ([1]; female, Danish Landrance × Yorkshire × Duroc, plasma, im, single i.m. dose 1 mg per pig, plasma, mean ± SD, n = 5, read-out: MRT0-∞) of 2.35 ± 0.23 h. The Cmax/D ([1]; single i.m. dose 1 mg per pig (about 0.018 mg/kg), rate of Cmax to dosage, mean ± SD, n = 5) was 610.19 ± 79.93 ng/mL/mg/kg, the Adverse effects ([1]; single i.m. dose 1 mg per pig, n = 5) was “No adverse effects were observed” and the AUMClast [1, 7] was 59.59 ± 16.54 h × h × ng/mL. The “ka (absorption rate constant)” value [1, 7] was 0.48 ± 0.07 h⁻¹, the “Stability, Accuracy Mean ± SD” value ([2]; autosampler, concentration 0.5 ng/mL) was 0.51 ± 0.04 and the “Stability, Accuracy Mean ± SD” value ([2]; autosampler, concentration 20 ng/mL) was 19.70 ± 2.32. The “Stability, Accuracy Mean ± SD” value ([2]; benchtop, concentration 0.5 ng/mL) was 0.47 ± 0.02, the “Stability, Accuracy Mean ± SD” value ([2]; benchtop, concentration 20 ng/mL) was 19.72 ± 1.61 and the “Stability, Accuracy Mean ± SD” value ([2]; freeze–thaw, concentration 0.5 ng/mL) was 0.51 ± 0.04. For the same compound, the “Stability, Accuracy Mean ± SD” value ([2]; freeze–thaw, concentration 20 ng/mL) was 19.95 ± 1.12, the “Stability during autosampler, benchtop, freeze–thaw, and stock solution test” value ([2]; summary statement for pig plasma, cow plasma and stock solution (Table 3)) was “stable” and the “Stability, Accuracy Mean ± SD” value ([3]; autosampler, concentration 0.25 ng/mL) was 0.24 ± 0.01. For the same compound, the “Stability, Accuracy Mean ± SD” value ([3]; autosampler, concentration 4 ng/mL) was 3.90 ± 0.30, the “Stability, Accuracy Mean ± SD” value ([3]; benchtop, concentration 0.25 ng/mL) was 0.25 ± 0.02 and the “Stability, Accuracy Mean ± SD” value ([3]; benchtop, concentration 4 ng/mL) was 3.87 ± 0.41. The “Stability, Accuracy Mean ± SD” value ([3]; freeze–thaw, concentration 0.25 ng/mL) was 0.26 ± 0.02, the “Stability, Accuracy Mean ± SD” value ([3]; freeze–thaw, concentration 4 ng/mL) was 3.95 ± 0.34 and the “Stock solution stability, Mean ± SD” value ([4]; column Cow) was 2.51 ± 0.05 Peak area (10^5). For the same compound, the “Stock solution stability, Mean ± SD” value ([4]; column Pig) was 2.50 ± 0.05 Peak area (10^5), the Protein binding [5] was “about 15%” and the “rapid initial half time / t1/2” value ([5]; guinea pigs, i.v. ref 1) was 0.2 h.

From PMC8996404, “The pharmacokinetics of buserelin after intramuscular administration in pigs and cows” (BMC Veterinary Research, 2022)
